From PubChem BioAssay AID2060883 (Molecular Pharmacology Branch, DTP, NCI, 2025)

System: 843782-103-R-J1-PDC complex spheroid viability
Test: Anticancer human tumor 843782-103-R-J1-PDC patient-derived lung adenocarcinoma cell line growth inhibition [RAS]
Settings: for IC50: curve of first compound; for viability, T/C: stronger effect = lower value
In short: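 Multi-cell-type spheroids: tumor cells plus HUVEC endothelial cells and mesenchymal stem cells. RAS-pathway inhibitors were combined with targeted agents, each dosed in half-log steps down from clinical Cmax, or from 10 microM when Cmax was unknown.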
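Further: viability read after seven days of compound exposure.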

Structure (SMILES): CC1(C)CCC(Nc2ncc(C(F)(F)F)c(-c3c[nH]c4c(P(C)(C)=O)c(C#N)ccc34)n2)CN1 (centres undefined) + CCn1c(-c2cc(N3CCN(C)CC3)cnc2C(C)OC)c2c3cc(ccc31)-c1csc(n1)CC(NC(=O)C1CC1C)C(=O)N1CCCC(N1)C(=O)OCC(C)(C)C2
- IC50 (second compound 0.000949 µM): 5.42 nM
- IC50 (second compound 0.003 µM): 2.24 nM
- IC50 (second compound 0.00949 µM): < 0.949 nM
- IC50 (second compound 0.03 µM): < 0.949 nM
- IC50 (second compound 0.0949 µM): < 0.949 nM
- IC50 (second compound 0.3 µM): < 0.949 nM
- viability, T/C (second compound 0.000949 µM, first compound 0.000949 µM): 72.5%
- viability, T/C (second compound 0.000949 µM, first compound 0.003 µM): 68.5%
- viability, T/C (second compound 0.000949 µM, first compound 0.00949 µM): 32.6%
- viability, T/C (second compound 0.000949 µM, first compound 0.03 µM): 14.2%
- viability, T/C (second compound 0.000949 µM, first compound 0.0949 µM): 12%
- viability, T/C (second compound 0.000949 µM, first compound 0.3 µM): 11.8%
- viability, T/C (second compound 0.003 µM, first compound 0.000949 µM): 60.5%
- viability, T/C (second compound 0.003 µM, first compound 0.003 µM): 46.6%
- viability, T/C (second compound 0.003 µM, first compound 0.00949 µM): 22.8%
- viability, T/C (second compound 0.003 µM, first compound 0.03 µM): 14.1%
- viability, T/C (second compound 0.003 µM, first compound 0.0949 µM): 11.1%
- viability, T/C (second compound 0.003 µM, first compound 0.3 µM): 11%
- viability, T/C (second compound 0.00949 µM, first compound 0.000949 µM): 39.2%
- viability, T/C (second compound 0.00949 µM, first compound 0.003 µM): 29.3%
- viability, T/C (second compound 0.00949 µM, first compound 0.00949 µM): 18.7%
- viability, T/C (second compound 0.00949 µM, first compound 0.03 µM): 10.5%
- viability, T/C (second compound 0.00949 µM, first compound 0.0949 µM): 12.1%
- viability, T/C (second compound 0.00949 µM, first compound 0.3 µM): 10.9%
- viability, T/C (second compound 0.03 µM, first compound 0.000949 µM): 20.1%
- viability, T/C (second compound 0.03 µM, first compound 0.003 µM): 21.7%
- viability, T/C (second compound 0.03 µM, first compound 0.00949 µM): 14.5%
- viability, T/C (second compound 0.03 µM, first compound 0.03 µM): 12.2%
- viability, T/C (second compound 0.03 µM, first compound 0.0949 µM): 10.5%
- viability, T/C (second compound 0.03 µM, first compound 0.3 µM): 9.54%
- viability, T/C (second compound 0.0949 µM, first compound 0.000949 µM): 18.7%
- viability, T/C (second compound 0.0949 µM, first compound 0.003 µM): 18.2%
- viability, T/C (second compound 0.0949 µM, first compound 0.00949 µM): 14.1%
- viability, T/C (second compound 0.0949 µM, first compound 0.03 µM): 12.2%
- viability, T/C (second compound 0.0949 µM, first compound 0.0949 µM): 10.3%
- viability, T/C (second compound 0.0949 µM, first compound 0.3 µM): 10.3%
- viability, T/C (second compound 0.3 µM, first compound 0.000949 µM): 14.5%
- viability, T/C (second compound 0.3 µM, first compound 0.003 µM): 14.3%
- viability, T/C (second compound 0.3 µM, first compound 0.00949 µM): 11.9%
- viability, T/C (second compound 0.3 µM, first compound 0.03 µM): 11.7%
- viability, T/C (second compound 0.3 µM, first compound 0.0949 µM): 11.5%
- viability, T/C (second compound 0.3 µM, first compound 0.3 µM): 10.1%

Structure (SMILES): CC(C)n1nc(-c2ccc3oc(N)nc3c2)c2c(N)ncnc21 + CCn1c(-c2cccnc2C(C)OC)c2c3cc(ccc31)N1CCOC(CC(NC(=O)C(C(C)C)N(C)C(=O)C3(F)CCN(C(=O)C#CC(C)(C)N(C)C)CC3)C(=O)N3CCCC(N3)C(=O)OCC(C)(C)C2)C1
- IC50 (second compound 0.000949 µM): 6.59 nM
- IC50 (second compound 0.003 µM): 5.28 nM
- IC50 (second compound 0.00949 µM): 5.87 nM
- IC50 (second compound 0.03 µM): 5.1 nM
- IC50 (second compound 0.0949 µM): 7.35 nM
- IC50 (second compound 0.3 µM): 3.57 nM
- viability, T/C (second compound 0.000949 µM, first compound 0.000316 µM): 84.1%
- viability, T/C (second compound 0.000949 µM, first compound 0.001 µM): 66.4%
- viability, T/C (second compound 0.000949 µM, first compound 0.00316 µM): 55.4%
- viability, T/C (second compound 0.000949 µM, first compound 0.01 µM): 52.8%
- viability, T/C (second compound 0.000949 µM, first compound 0.0316 µM): 28.5%
- viability, T/C (second compound 0.000949 µM, first compound 0.1 µM): 14.9%
- viability, T/C (second compound 0.003 µM, first compound 0.000316 µM): 78.1%
- viability, T/C (second compound 0.003 µM, first compound 0.001 µM): 72.7%
- viability, T/C (second compound 0.003 µM, first compound 0.00316 µM): 52.9%
- viability, T/C (second compound 0.003 µM, first compound 0.01 µM): 44.4%
- viability, T/C (second compound 0.003 µM, first compound 0.0316 µM): 27.1%
- viability, T/C (second compound 0.003 µM, first compound 0.1 µM): 18.3%
- viability, T/C (second compound 0.00949 µM, first compound 0.000316 µM): 72.7%
- viability, T/C (second compound 0.00949 µM, first compound 0.001 µM): 62.8%
- viability, T/C (second compound 0.00949 µM, first compound 0.00316 µM): 57.3%
- viability, T/C (second compound 0.00949 µM, first compound 0.01 µM): 46.1%
- viability, T/C (second compound 0.00949 µM, first compound 0.0316 µM): 28%
- viability, T/C (second compound 0.00949 µM, first compound 0.1 µM): 15.5%
- viability, T/C (second compound 0.03 µM, first compound 0.000316 µM): 70.4%
- viability, T/C (second compound 0.03 µM, first compound 0.001 µM): 69.9%
- viability, T/C (second compound 0.03 µM, first compound 0.00316 µM): 53.6%
- viability, T/C (second compound 0.03 µM, first compound 0.01 µM): 42.7%
- viability, T/C (second compound 0.03 µM, first compound 0.0316 µM): 25.3%
- viability, T/C (second compound 0.03 µM, first compound 0.1 µM): 17.1%
- viability, T/C (second compound 0.0949 µM, first compound 0.000316 µM): 73%
- viability, T/C (second compound 0.0949 µM, first compound 0.001 µM): 64%
- viability, T/C (second compound 0.0949 µM, first compound 0.00316 µM): 70.5%
- viability, T/C (second compound 0.0949 µM, first compound 0.01 µM): 42.1%
- viability, T/C (second compound 0.0949 µM, first compound 0.0316 µM): 25.6%
- viability, T/C (second compound 0.0949 µM, first compound 0.1 µM): 15.8%
- viability, T/C (second compound 0.3 µM, first compound 0.000316 µM): 71.3%
- viability, T/C (second compound 0.3 µM, first compound 0.001 µM): 66.7%
- viability, T/C (second compound 0.3 µM, first compound 0.00316 µM): 47.3%
- viability, T/C (second compound 0.3 µM, first compound 0.01 µM): 40.3%
- viability, T/C (second compound 0.3 µM, first compound 0.0316 µM): 23.7%
- viability, T/C (second compound 0.3 µM, first compound 0.1 µM): 12.6%
